One data set concerns WEHI-13VAR cells. The data set can be described thus: TNF bioassay: TNF-induced death of WEHI-13VAR cells in the presence of AcD (MTT). The data set is classed as cell-based. The method, then: WEHI-13VAR is a fibrosarcoma cell line that is extremely sensitive to TNF-induced cell death in the presence of AcD (0.5 μg/ml) and is commonly used in TNF bioassays. In TNF bioassays, the presence of AcD is a standard approach designed to increase the sensitivity of cells to TNF. TNF acts by binding to its two functionally distinct receptors, TNFR1 and TNFR2. To identify which TNF receptor was expressed on WEHI-13VAR cells, we measured the expression of TNFR1 and TNFR2 on WEHI-13VAR by FACS. […] In the case of labeling with PE anti-mouse TNFR2 antibody, the expression of TNFR2 was higher than in the case of labeling with the isotype control by 50%. […] Furthermore, in order to investigate which TNF receptor is responsible for TNF-induced cell death, we stimulated the cells with TNF, and co-cultured the cells with anti-TNFR1 antibody or anti-TNFR2 antibody for 24 hours. Cell viability was measured by MTT. […]
CHIs are injections developed in China and approved by the China Food and Drug Administration. […] We screened eleven CHIs and assessed their effects on WEHI-13VAR cells by TNF bioassay. […]
WEHI-13VAR cells were seeded in 96-well plates at 1.5×10^4 cells/well. […] Absorbance values were read at 570 nm using a 1420 Multilabel counter victor (PerkinElmer, Waltham, Mass., USA). Cell viability was expressed as the ratio of absorbance values between the sample and the blank control group.

The next data set concerns Tregs. The data set is described as follows: TNF-induced up-regulation of Tregs and Foxp3/TNFR2 expression in cultured lymphocytes (FACS). Type of data set: cell-based. The conditions noted are these: in vitro. The method, then: FIG. 5. […] Lymphocytes were cultured in the presence of IL-2 (10 ng/mL) or IL-2+TNF (10 ng/mL each), with medium alone or with scutellarin (25-50 μM) for 72 hours. (A) Typical FACS analysis of Tregs is shown. The data as shown are representative of at least three separate experiments with similar results. The numbers in the FACS plots show the proportion of cells in the respective quadrants. (B) Summary of the proportion of CD4^+Foxp3^+ cells in CD4^+ cells. (C) Summary of MFI of Foxp3 expression on Tregs. (D) Typical FACS plots of the proportion of TNFR2^+ cells in Tregs. (E) Summary of the proportion of TNFR2^+ cells in CD4^+Foxp3^+Tregs. (F) Summary of MFI of TNFR2 expression on Tregs (by gating on Foxp3^+ cells) (N=3, mean±SEM). ** p<0.01, *** p<0.001, compared to the “TNF+IL-2” group. The data as shown are representative of at least three separate experiments with similar results.
We then explored the effect of scutellarin on the TNF-induced proliferation of Tregs in an in vitro experiment. […]
Lymphocytes were obtained from spleens, axillary lymph nodes, inguinal lymph nodes and mesenteric lymph nodes of mice. […] The proliferation of Tregs was assessed by CFSE dilution assay, and the proportion of Foxp3^+ cells in the CD4^+ subset and the proportion of TNFR2 expressed on Tregs were analyzed by FACS. […] The expression of Foxp3 and TNFR2 was analyzed by FACS. […]

Each structure is given as a SMILES string. Starred links: 1 amine or outer side, 2 acyl side, 3 side chain; linkers in the order of their positions; H or OH if unused. Positions of bridges follow the written chain, without caps; N, C: chain ends. Non-standard residues stand in square brackets, D forms with d. Residues, ends and D or L forms follow the SMILES beside them. Chains are numbered I, II in the order given. Actinocin(9to1) = Cc1c2oc3c(C)ccc(C(=O)[*:1])c3nc-2c(C(=O)[*:2])c(N)c1=O; NMeV = CN[C@H](C(=O)O)C(C)C; Sar = CNCC(=O)O

Here are results for 2 molecules from US11266670B2, “Use of scutellarin in a medicament and a modulator for preventing or treating diseases, medicament, and modulator” (University of Macau, priority 2019, dated 2022).

`Cc1c2oc3c(C)ccc(C(=O)N[C@@H]4C(=O)N[C@H](C(C)C)C(=O)N5CCC[C@H]5C(=O)N(C)CC(=O)N(C)[C@@H](C(C)C)C(=O)O[C@@H]4C)c3nc-2c(C(=O)N[C@@H]2C(=O)N[C@H](C(C)C)C(=O)N3CCC[C@H]3C(=O)N(C)CC(=O)N(C)[C@@H](C(C)C)C(=O)O[C@@H]2C)c(N)c1=O` [AcD, actinomycin D, reference compound] (I: T[dV]P[Sar][NMeV] / II: T[dV]P[Sar][NMeV]; ester I:1-I:C, II:1-II:C; linker I:N-II:N via Actinocin(9to1)): the “death of WEHI-13VAR cells induced by AcD” value in the data set with WEHI-13VAR cells (AcD 0.5 μg/ml alone) was “approximately 30%”.

Turning to `O=C(O)[C@H]1O[C@@H](Oc2cc3oc(-c4ccc(O)cc4)cc(=O)c3c(O)c2O)[C@H](O)[C@@H](O)[C@@H]1O` [scutellarin], the “cytotoxicity against WEHI-13VAR cells” value with WEHI-13VAR cells (scutellarin 12.5-200 μM) is on record as “no significant cytotoxicity against WEHI-13VAR cells”. For the same molecule, in the data set with Tregs, the “50% lethal dose of scutellarin” value is “higher than 100 μM”.
